Data: patent US20230148214A1, “INDAZOLES AND AZAINDAZOLES AS LRRK2 INHIBITORS” (ESCAPE Bio, Inc., priority 2020, published 2023)

Biological target: T1, LRRK2 WT (Homo sapiens, UniProt Q5S007)
T1 construct: purchased Life Technologies PR8604B
Test: LRRK2 Kinase Activity Assay (LanthaScreen TR-FRET), wild type
Type: biochemical
Settings: recombinant wild type LRRK2, 25 μM ATP, 400 nM LRRKtide, 60 min; class symbols
Protocol: LRRK2 kinase activity was measured using a LanthaScreen™ Kinase Activity Assay from ThermoFisher Scientific. Recombinant wild type or G2019S-LRRK2 protein (Life Technologies, PR8604B or PV4881, respectively), was incubated with a fluorescein-labeled peptide substrate called LRRKtide that is based upon ezrin/radixin/moesin (ERM) (Life Technologies, PV4901) in the presence of ATP and serially diluted compound. […] Compound-dependent inhibition of the TR-FRET signal was used to generate a concentration-response curve for IC50 determination.
After 60 min incubation at room temperature, the reaction was stopped by addition of 10 μL of 2×stop solution containing a final concentration of 2 nM anti-pERM antibody and 10 mM EDTA.

T1 sequence (Q5S007 whole entry): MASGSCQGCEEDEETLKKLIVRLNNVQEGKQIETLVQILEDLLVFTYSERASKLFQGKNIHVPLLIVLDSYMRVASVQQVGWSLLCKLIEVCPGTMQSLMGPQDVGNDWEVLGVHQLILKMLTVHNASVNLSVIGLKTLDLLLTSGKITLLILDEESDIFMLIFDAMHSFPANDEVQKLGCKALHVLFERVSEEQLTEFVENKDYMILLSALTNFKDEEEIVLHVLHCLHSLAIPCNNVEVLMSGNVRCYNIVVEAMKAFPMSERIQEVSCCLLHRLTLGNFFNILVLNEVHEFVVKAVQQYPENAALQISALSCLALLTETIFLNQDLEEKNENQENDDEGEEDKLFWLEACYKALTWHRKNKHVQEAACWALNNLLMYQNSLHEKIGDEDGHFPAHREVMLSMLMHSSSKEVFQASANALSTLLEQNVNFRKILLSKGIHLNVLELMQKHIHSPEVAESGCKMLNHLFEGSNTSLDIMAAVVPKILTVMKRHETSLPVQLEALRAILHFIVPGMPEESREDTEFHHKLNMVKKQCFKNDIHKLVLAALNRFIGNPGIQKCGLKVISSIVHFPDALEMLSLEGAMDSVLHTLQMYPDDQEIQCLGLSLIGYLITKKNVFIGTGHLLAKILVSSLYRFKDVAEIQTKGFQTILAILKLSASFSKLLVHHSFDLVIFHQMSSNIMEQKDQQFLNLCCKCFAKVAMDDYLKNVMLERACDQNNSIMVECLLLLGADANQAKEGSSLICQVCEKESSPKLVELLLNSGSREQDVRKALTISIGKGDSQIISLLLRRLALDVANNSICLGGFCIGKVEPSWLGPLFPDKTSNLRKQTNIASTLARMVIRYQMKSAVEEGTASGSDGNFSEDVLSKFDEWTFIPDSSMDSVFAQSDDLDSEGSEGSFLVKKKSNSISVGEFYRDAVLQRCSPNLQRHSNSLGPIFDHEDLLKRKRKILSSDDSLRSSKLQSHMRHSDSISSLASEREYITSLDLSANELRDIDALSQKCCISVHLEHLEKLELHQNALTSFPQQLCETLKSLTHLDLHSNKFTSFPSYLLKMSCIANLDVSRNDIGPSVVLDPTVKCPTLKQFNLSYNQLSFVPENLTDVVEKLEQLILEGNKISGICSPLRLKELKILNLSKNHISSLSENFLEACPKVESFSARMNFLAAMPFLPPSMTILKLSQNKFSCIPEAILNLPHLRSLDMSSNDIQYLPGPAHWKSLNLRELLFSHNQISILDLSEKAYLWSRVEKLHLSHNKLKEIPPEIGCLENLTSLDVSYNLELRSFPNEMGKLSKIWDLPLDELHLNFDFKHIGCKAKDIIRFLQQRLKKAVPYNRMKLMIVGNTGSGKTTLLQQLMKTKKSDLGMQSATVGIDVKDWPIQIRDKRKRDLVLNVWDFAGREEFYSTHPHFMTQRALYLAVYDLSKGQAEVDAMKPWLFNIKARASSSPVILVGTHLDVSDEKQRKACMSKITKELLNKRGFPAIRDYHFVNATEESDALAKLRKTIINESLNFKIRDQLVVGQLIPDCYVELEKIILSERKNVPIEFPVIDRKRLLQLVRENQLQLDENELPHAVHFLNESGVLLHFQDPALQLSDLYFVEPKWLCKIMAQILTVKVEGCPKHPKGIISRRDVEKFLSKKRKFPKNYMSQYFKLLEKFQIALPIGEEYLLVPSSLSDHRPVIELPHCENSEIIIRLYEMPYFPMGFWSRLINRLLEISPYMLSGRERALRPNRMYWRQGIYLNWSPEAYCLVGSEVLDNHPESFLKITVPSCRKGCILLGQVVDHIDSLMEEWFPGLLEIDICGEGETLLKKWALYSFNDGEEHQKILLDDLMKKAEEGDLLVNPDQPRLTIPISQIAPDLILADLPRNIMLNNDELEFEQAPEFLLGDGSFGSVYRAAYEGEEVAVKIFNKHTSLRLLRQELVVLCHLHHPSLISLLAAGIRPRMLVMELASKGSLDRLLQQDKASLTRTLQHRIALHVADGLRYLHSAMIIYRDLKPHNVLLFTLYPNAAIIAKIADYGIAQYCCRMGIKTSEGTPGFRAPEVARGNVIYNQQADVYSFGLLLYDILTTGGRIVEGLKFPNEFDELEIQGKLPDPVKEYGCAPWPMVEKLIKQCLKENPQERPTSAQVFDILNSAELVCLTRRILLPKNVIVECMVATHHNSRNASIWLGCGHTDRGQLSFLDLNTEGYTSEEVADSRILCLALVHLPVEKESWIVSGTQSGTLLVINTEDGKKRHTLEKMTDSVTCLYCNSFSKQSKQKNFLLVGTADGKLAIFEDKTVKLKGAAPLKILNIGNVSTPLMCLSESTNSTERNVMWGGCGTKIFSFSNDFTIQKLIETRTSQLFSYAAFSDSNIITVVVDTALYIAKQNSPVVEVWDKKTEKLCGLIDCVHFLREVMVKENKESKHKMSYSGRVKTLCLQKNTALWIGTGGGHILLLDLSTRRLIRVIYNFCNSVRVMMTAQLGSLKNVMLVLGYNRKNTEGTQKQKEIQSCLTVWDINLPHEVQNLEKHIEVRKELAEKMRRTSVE

Row | IC50 [nM] | Structure (SMILES)
1 | < 100 | N#Cc1cc2c(nc1Cl)[C@@H](Oc1ccc3[nH]nc(-c4cnco4)c3c1)CCC2 (single isomer, unassigned) [177, enantiomer 2, 2-Chloro-8-((3-(oxazol-5-yl)-1H-indazol-5-yl)oxy)-5,6,7,8-tetrahydroquinoline-3-carbonitrile]
2 | < 100 | N#Cc1cc2c(nc1Cl)[C@@H](Oc1ccc3[nH]nc(-c4cnoc4)c3c1)CCC2 (single isomer, unassigned) [178, enantiomer 2, 2-Chloro-8-[[3-(1,2-oxazol-4-yl)-1H-indazol-5-yl]oxy]-5,6,7,8-tetrahydroquinoline-3-carbonitrile]
3 | < 100 | N#Cc1cc2c(cc1F)[C@@H](Oc1ccc3[nH]nc(-c4cnco4)c3c1)CCC2 (single isomer, unassigned) [180, enantiomer 2, 3-Fluoro-5-[[3-(1,3-oxazol-5-yl)-1H-indazol-5-yl]oxy]-5,6,7,8-tetrahydronaphthalene-2-carbonitrile]
4 | < 100 | N#Cc1cnc2c(n1)CC[C@@H]2Oc1ccc2[nH]nc(-c3cnco3)c2c1 (single isomer, unassigned) [182, enantiomer 2, 5-((3-(Oxazol-5-yl)-1H-indazol-5-yl)oxy)-6,7-dihydro-5H-cyclopenta[b]pyrazine-2-carbonitrile]
5 | < 100 | N#Cc1cnc2c(c1)CCC[C@@H]2Oc1ccc2[nH]nc(-c3cnoc3)c2c1 (single isomer, unassigned) [Example 2, enantiomer 2, 8-((3-(Isoxazol-4-yl)-1H-indazol-5-yl)oxy)-5,6,7,8-tetrahydroquinoline-3-carbonitrile]
6 | < 100 | N#Cc1ccc2c(c1)CCC2Oc1ccc2[nH]nc(-c3cnco3)c2c1 (single isomer, unassigned) [Example 3, enantiomer 2, 1-((3-(Oxazol-5-yl)-1H-indazol-5-yl)oxy)-2,3-dihydro-1H-indene-5-carbonitrile]
7 | < 100 | N#Cc1ccc2c(c1)CC[C@@H]2Oc1ccc2[nH]nc(-c3cnn(C(F)F)c3)c2c1 (single isomer, unassigned) [Example 4, enantiomer 2, 1-((3-(1-(Difluoromethyl)-1H-pyrazol-4-yl)-1H-indazol-5-yl)oxy)-2,3-dihydro-1H-indene-5-carbonitrile]
8 | < 100 | N#Cc1ccc2c(c1)CC[C@@H]2Oc1ccc2[nH]nc(-c3cnoc3)c2c1 (single isomer, unassigned) [Example 5, enantiomer 2, 1-((3-(Isoxazol-4-yl)-1H-indazol-5-yl)oxy)-2,3-dihydro-1H-indene-5-carbonitrile]
9 | < 100 | N#Cc1ccc2c(c1)CC[C@@H]2Nc1ccc2[nH]nc(-c3cnoc3)c2c1 (single isomer, unassigned) [Example 8, enantiomer 2, 1-((3-(Isoxazol-4-yl)-1H-indazol-5-yl)amino)-2,3-dihydro-1H-indene-5-carbonitrile]
10 | < 100 | N#Cc1ccc2c(c1)CC[C@@H]2Nc1ccc2[nH]nc(-c3cnco3)c2c1 (single isomer, unassigned) [Example 9, enantiomer 2, 1-((3-(Oxazol-5-yl)-1H-indazol-5-yl)amino)-2,3-dihydro-1H-indene-5-carbonitrile]
11 | < 100 | N#Cc1ccc2c(c1)CC[C@@H]2Nc1ccc2[nH]nc(-c3ccoc3)c2c1 (single isomer, unassigned) [Example 11, enantiomer 2, 1-((3-(Furan-3-yl)-1H-indazol-5-yl)amino)-2,3-dihydro-1H-indene-5-carbonitrile]
12 | < 100 | N#Cc1ccc2c(c1)CC[C@@H]2Nc1ccc2[nH]nc(-c3cnn(C(F)F)c3)c2c1 (single isomer, unassigned) [Example 12, enantiomer 2, 1-((3-(1-(Difluoromethyl)-1H-pyrazol-4-yl)-1H-indazol-5-yl)amino)-2,3-dihydro-1H-indene-5-carbonitrile]
13 | < 100 | Cc1cc(C#N)cc2c1[C@@H](Oc1ccc3[nH]nc(-c4cnco4)c3c1)CC2 (single isomer, unassigned) [Example 14, enantiomer 2, 7-Methyl-1-((3-(oxazol-5-yl)-1H-indazol-5-yl)oxy)-2,3-dihydro-1H-indene-5-carbonitrile]
14 | < 100 | N#Cc1cnc2c(c1)CCC[C@@H]2Oc1ccc2[nH]nc(-c3cnco3)c2c1 (single isomer, unassigned) [Example 16, enantiomer 2, 8-((3-(Oxazol-5-yl)-1H-indazol-5-yl)oxy)-5,6,7,8-tetrahydroquinoline-3-carbonitrile]
15 | < 100 | N#Cc1ccc2c(c1)CCC[C@@H]2Oc1ccc2[nH]nc(-c3cnco3)c2c1 (single isomer, unassigned) [Example 18, enantiomer 2, 5-((3-(Oxazol-5-yl)-1H-indazol-5-yl)oxy)-5,6,7,8-tetrahydronaphthalene-2-carbonitrile]
16 | < 100 | Cc1c(C#N)ccc2c1CC[C@@H]2Oc1ccc2[nH]nc(-c3cnco3)c2c1 (single isomer, unassigned) [Example 22, enantiomer 2, 4-Methyl-1-((3-(oxazol-5-yl)-1H-indazol-5-yl)oxy)-2,3-dihydro-1H-indene-5-carbonitrile]
17 | < 100 | N#Cc1cc2c(cc1F)[C@@H](Oc1ccc3[nH]nc(-c4cnco4)c3c1)CC2 (single isomer, unassigned) [Example 23, enantiomer 2, 6-Fluoro-1-((3-(oxazol-5-yl)-1H-indazol-5-yl)oxy)-2,3-dihydro-1H-indene-5-carbonitrile]
18 | < 100 | N#Cc1ccc2c(c1F)CC[C@@H]2Oc1ccc2[nH]nc(-c3cnco3)c2c1 (single isomer, unassigned) [Example 24, enantiomer 2, 4-Fluoro-1-((3-(oxazol-5-yl)-1H-indazol-5-yl)oxy)-2,3-dihydro-1H-indene-5-carbonitrile]
19 | < 100 | N#Cc1cc2c(cc1F)[C@@H](Nc1ccc3[nH]nc(-c4cnco4)c3c1)CC2 (single isomer, unassigned) [Example 25, enantiomer 2, 6-Fluoro-1-((3-(oxazol-5-yl)-1H-indazol-5-yl)amino)-2,3-dihydro-1H-indene-5-carbonitrile]
20 | < 100 | N#Cc1ccc2c(c1F)CC[C@@H]2Nc1ccc2[nH]nc(-c3cnco3)c2c1 (single isomer, unassigned) [Example 26, enantiomer 2, 4-Fluoro-1-((3-(oxazol-5-yl)-1H-indazol-5-yl)amino)-2,3-dihydro-1H-indene-5-carbonitrile]
21 | < 100 | Cc1c(C#N)ccc2c1CC[C@@H]2Nc1ccc2[nH]nc(-c3cnco3)c2c1 (single isomer, unassigned) [Example 27, enantiomer 2, 4-methyl-1-((3-(oxazol-5-yl)-1H-indazol-5-yl)amino)-2,3-dihydro-1H-indene-5-carbonitrile]
22 | < 100 | Cc1cc2c(cc1C#N)CC[C@@H]2Nc1ccc2[nH]nc(-c3cnco3)c2c1 (single isomer, unassigned) [Example 28, enantiomer 2, 6-Methyl-1-((3-(oxazol-5-yl)-1H-indazol-5-yl)amino)-2,3-dihydro-1H-indene-5-carbonitrile]
23 | < 100 | Cc1cc2c(cc1C#N)CC[C@H]2Oc1ccc2[nH]nc(-c3cnco3)c2c1 (single isomer, unassigned) [Example 29, enantiomer 2, 6-Methyl-1-((3-(oxazol-5-yl)-1H-indazol-5-yl)oxy)-2,3-dihydro-1H-indene-5-carbonitrile]
24 | < 100 | N#Cc1cccc2c1[C@@H](Oc1ccc3[nH]nc(-c4cnco4)c3c1)CC2 (single isomer, unassigned) [Example 37, enantiomer 2, 3-((3-(Oxazol-5-yl)-1H-indazol-5-yl)oxy)-2,3-dihydro-1H-indene-4-carbonitrile]
25 | < 100 | N#Cc1ccc2c(c1)CCC[C@@H]2Oc1ccc2[nH]nc(-c3ccnc(N4CCOCC4)c3)c2c1 (single isomer, unassigned) [Example 39, enantiomer 2, 5-((3-(2-Morpholinopyridin-4-yl)-1H-indazol-5-yl)oxy)-5,6,7,8-tetrahydronaphthalene-2-carbonitrile]
26 | < 100 | COc1cc(-c2n[nH]c3ccc(N[C@H]4CCc5cc(C#N)ccc54)cc23)ccn1 (single isomer, unassigned) [Example 40, enantiomer 2, 1-((3-(2-Methoxypyridin-4-yl)-1H-indazol-5-yl)amino)-2,3-dihydro-1H-indene-5-carbonitrile]
27 | < 100 | N#Cc1cc2c(nn1)[C@@H](Oc1ccc3[nH]nc(-c4cnco4)c3c1)CC2 (single isomer, unassigned) [Example 41, enantiomer 2, 7-((3-(Oxazol-5-yl)-1H-indazol-5-yl)oxy)-6,7-dihydro-5H-cyclopenta[c]pyridazine-3-carbonitrile]
28 | < 100 | N#Cc1ccc2c(c1)CC(F)(F)[C@@H]2Nc1ccc2[nH]nc(-c3cnco3)c2c1 (single isomer, unassigned) [Example 42, enantiomer 2, 2,2-Difluoro-1-((3-(oxazol-5-yl)-1H-indazol-5-yl)amino)-2,3-dihydro-1H-indene-5-carbonitrile]
29 | < 100 | N#Cc1cnc2c(c1)C1CC1[C@@H]2Nc1ccc2[nH]nc(-c3cnco3)c2c1 (single isomer, unassigned) [Example 48, enantiomer 2, 6-((3-(Oxazol-5-yl)-1H-indazol-5-yl)amino)-4b,5,5a,6-tetrahydrocyclopropa[3,4]cyclopenta[1,2-b]pyridine-3-carbonitrile]
30 | < 100 | N#Cc1ccc2c(c1F)CC[C@@H]2Oc1ccc2[nH]nc(-c3cnn(C(F)F)c3)c2c1 (single isomer, unassigned) [Example 51, enantiomer 2, 1-((3-(1-(Difluoromethyl)-1H-pyrazol-4-yl)-1H-indazol-5-yl)oxy)-4-fluoro-2,3-dihydro-1H-indene-5-carbonitrile]
